Data from patent publication US20250332300A1 (priority 2024, published 2025).
pIC50, pKd: −log10 of the molar value. Where a name gives a salt, the structure may show the parent alone. Read-outs that look alike come from different tables or passages of the source. Starred links: 1 amine or outer side, 2 acyl side, 3 side chain; linkers in the order of their positions; H or OH if unused. Positions of bridges follow the written chain, without caps; N, C: chain ends. Non-standard residues stand in square brackets, D forms with d. Residues, ends and D or L forms follow the SMILES beside them. *: point of attachment. DOTA = O=C(O)CN1CCN(CC(=O)O)CCN(CC(=O)*)CCN(CC(=O)O)CC1; Trp(5-OH) = N[C@@H](Cc1c[nH]c2ccc(O)cc12)C(=O)O; NMePhe(4-F) = CN[C@@H](Cc1ccc(F)cc1)C(=O)O; NMehPhe = CN[C@@H](CCc1ccccc1)C(=O)O; Aad = N[C@@H](CCCC(=O)O)C(=O)O; Gly(cPr) = N[C@H](C(=O)O)C1CC1; NMeK = CN[C@@H](CCCCN)C(=O)O; NMeDap = CN[C@@H](CN)C(=O)O; hLys = NCCCCC[C@H](N)C(=O)O; Orn = NCCC[C@H](N)C(=O)O; X6 = O=C(C[*:1])[*:2]

Legend:
Type in all cases: binding
mouse HER2 (23-653) = mouse HER2 (23-653) (Mus musculus, UniProt P70424); assay: TR-FRET competition assay for peptide potency, mouse HER2; parameters: mouse HER2 (23-653) using a Cy5 labeled peptide as a probe; made in house; host or cells: mammalian cells
Procedure: (§1) Both proteins containing a His-, Avi-tag and biotin in Nterminus, were expressed in mammalian cells and produced in house. […] Standard assay conditions consist of 20 uL total volume in white 384-well plates (Greiner), in 10 mM HEPES buffer containing 150 mM NaCl, 3 mM EDTA, 0.05% Tween20 and 1% final DMSO. […] The ratiometric FRET assay readout is calculated from the ratio of the raw data of the two distinct fluorescence signals measured in time resolved mode (fluorescence 665 nm/fluorescence 620 nm). IC50 values were calculated with the standard Novartis in-house assay data analysis software (Helios software application, Novartis Institutes for BioMedical Research, unpublished) using the methods described in Comput. Methods. Programs. Biomed. 2006, 82, 31-37 (regression algorithms for nonlinear dose-response curve fitting).

human HER2 (23-652) [1] = biological target: T1, human HER2 (23-652) (Homo sapiens, UniProt P04626); assay: TR-FRET competition assay for peptide potency, human HER2; parameters: towards human HER2 (23-652) and mouse HER2 (23-653); made in house; host or cells: mammalian cells
Procedure: as §1

human HER2 (23-652) [2] = biological target: T1, human HER2 (23-652); assay: Surface plasmon resonance (SPR) for assessment of peptide affinity, human HER2; parameters: towards human HER2 (23-652) and mouse HER2 (23-653); made in house; conditions: SPR, human HER2 extracellular domain, 25° C., 1:1 binding model; read-out: huHER2-SPR-ONC KD
Procedure: Each protein was immobilized either onto a SA sensorchip (Cytiva, BR-1005-31) or CM5 sensorchip (Cytiva, BR-1005-30) to a density of 800-2000 RU. […] For the assay setup the same conditions (flow rate, running buffer, peptide dilution) as described above were used. In a first step the Anti Fc IgG Ab (from Human Antibody Capture Kit, Ref. 29234600, Cytiva) was diluted into acetate pH 5.0 at 25 ug/mL and immobilized at a flow rate of 10 uL/min over 360 s to reach a density around 6000 RU. […] The peptides were tested with an association time of 280 s followed by a dissociation time of 3000 s at a flow rate of 30 uL/min. The regeneration was done using 3 M magnesium chloride regeneration solution as obtained with a contact time of 30 s at a flow rate of 10 uL/min. Curve fitting was performed using the BiacoreTM 8K evaluation software.

[3] = TR-FRET competition with Cy5 labeled peptide probe, 0.1 nM mouse HER2, 24 h incubation, read-out: moHER2 TR-FRET IC50
[4] = TR-FRET competition with Cy5 labeled peptide probe, 0.1 nM human HER2, 24 h incubation, read-out: huHER2 TR-FRET IC50

Structure (SMILES)	pIC50 (mouse HER2 (23-653); [3])	pIC50 (human HER2 (23-652) [1]; [4])	pKd (human HER2 (23-652) [2])	pIC50 (human HER2 (23-652) [1]; read-out: huHER2 TR-FRET IC50)	pIC50 (mouse HER2 (23-653); value in parentheses (**): recalculated after further repetition, read-out: moHER2 TR-FRET IC50, recalculated value achieved after further repetition)	pIC50 (human HER2 (23-652) [1]; value in parentheses (**): recalculated after further repetition, read-out: huHER2 TR-FRET IC50, recalculated value achieved after further repetition)
CC(=O)NCCCC[C@H]1C(=O)N[C@@H](Cc2c[nH]c3ccc(O)cc23)C(=O)N[C@@H](Cc2c[nH]c3ccccc23)C(=O)N[C@@H](C2CC2)C(=O)N(C)[C@H](C(=O)N(C)[C@@H](Cc2ccc(F)cc2)C(=O)N[C@@H](CCCCNC(=O)CN2CCN(CC(=O)O)CCN(CC(=O)O)CCN(CC(=O)O)CC2)C(N)=O)CNC(=O)CCC[C@H](N)C(=O)N[C@@H](Cc2ccc(O)cc2)C(=O)N[C@@H](CO)C(=O)N(C)[C@@H](CCc2ccccc2)C(=O)N1C [Example C18]	9.22	10.00	10.00			
CC(=O)NCCCC[C@H]1C(=O)N[C@@H](Cc2c[nH]c3ccc(O)cc23)C(=O)N[C@@H](Cc2c[nH]c3ccccc23)C(=O)N[C@@H](C2CC2)C(=O)N(C)[C@H](C(=O)N(C)[C@@H](Cc2ccc(F)cc2)C(=O)N[C@@H](CCCCCNC(=O)CN2CCN(CC(=O)O)CCN(CC(=O)O)CCN(CC(=O)O)CC2)C(N)=O)CNC(=O)CCC[C@H](NC(C)=O)C(=O)N[C@@H](Cc2ccc(O)cc2)C(=O)N[C@@H](CO)C(=O)N(C)[C@@H](CCc2ccccc2)C(=O)N1C [Example C17] (Ac-[Aad]YS[NMehPhe][NMeK](Ac)[Trp(5-OH)]W[Gly(cPr)][NMeDap][NMePhe(4-F)][hLys](DOTA)-NH2; lactam 1-9)	10.00	> 10.00	> 10.00			
CC(=O)NCCCC[C@H]1C(=O)N[C@@H](Cc2c[nH]c3ccc(O)cc23)C(=O)N[C@@H](Cc2c[nH]c3ccccc23)C(=O)N[C@@H](C2CC2)C(=O)N(C)[C@H](C(=O)N(C)[C@@H](Cc2ccc(F)cc2)C(=O)N[C@@H](CCCCNC(=O)CN2CCN(CC(=O)O)CCN(CC(=O)O)CC2)C(N)=O)CNC(=O)CCC[C@H](NC(C)=O)C(=O)N[C@@H](Cc2ccc(O)cc2)C(=O)N[C@@H](CO)C(=O)N(C)[C@@H](CCc2ccccc2)C(=O)N1C [Example B10]	> 10.00		> 10.00	> 10.00		
CC(=O)NCCCC[C@H]1C(=O)N[C@@H](Cc2c[nH]c3ccc(O)cc23)C(=O)N[C@@H](Cc2c[nH]c3ccccc23)C(=O)N[C@@H](C2CC2)C(=O)N(C)[C@H](C(=O)N(C)[C@@H](Cc2ccc(F)cc2)C(=O)N[C@@H](CCCCNC(=O)CN2CCN(CC(=O)O)CCN(CC(=O)O)CCN(CC(=O)O)CC2)C(N)=O)CNC(=O)CCC[C@H](NC(=O)CC(=O)O)C(=O)N[C@@H](Cc2ccc(O)cc2)C(=O)N[C@@H](CO)C(=O)N(C)[C@@H](CCc2ccccc2)C(=O)N1C [Example C10]	> 10.00	> 10.00	> 10.00			
CC(=O)NCCCC[C@H]1C(=O)N[C@@H](Cc2c[nH]c3ccc(O)cc23)C(=O)N[C@@H](Cc2c[nH]c3ccccc23)C(=O)N[C@@H](C2CC2)C(=O)N(C)[C@H](C(=O)N(C)[C@@H](Cc2ccc(F)cc2)C(=O)N[C@@H](CCCCNC(=O)CN2CCN(CC(=O)O)CCN(CC(=O)O)CCN(CC(=O)O)CC2)C(N)=O)CNC(=O)COC[C@H](NC(C)=O)C(=O)N[C@@H](Cc2ccc(O)cc2)C(=O)N[C@@H](CO)C(=O)N(C)[C@@H](CCc2ccccc2)C(=O)N1C [Example C16] (Ac-SYS[NMehPhe][NMeK](Ac)[Trp(5-OH)]W[Gly(cPr)][NMeDap][NMePhe(4-F)]K(DOTA)-NH2; linker 1-9 via X6)	10.00	> 10.00	> 10.00			
COCCOCCOCCOCCOCCOCCOCCOCCOCCOCCOCCOCCC(=O)N[C@H]1CCCC(=O)NC[C@@H](C(=O)N(C)[C@@H](Cc2ccc(F)cc2)C(=O)N[C@@H](CCCCN)C(N)=O)N(C)C(=O)[C@H](C2CC2)NC(=O)[C@H](Cc2c[nH]c3ccccc23)NC(=O)[C@H](Cc2c[nH]c3ccc(O)cc23)NC(=O)[C@H](CCCCNC(C)=O)N(C)C(=O)[C@H](CCc2ccccc2)N(C)C(=O)[C@H](CO)NC(=O)[C@H](Cc2ccc(O)cc2)NC1=O [Example A43, TFA salt]	9.70		9.70	> 10.00		
CC(=O)NCCCC[C@H]1C(=O)N[C@@H](Cc2c[nH]c3ccc(O)cc23)C(=O)N[C@H](Cc2c[nH]c3ccccc23)C(=O)N[C@@H](C2CC2)C(=O)N(C)[C@H](C(=O)N(C)[C@@H](Cc2ccc(F)cc2)C(=O)N[C@@H](CCCCNC(=O)CN2CCN(CC(=O)O)CCN(CC(=O)O)CCN(CC(=O)O)CC2)C(N)=O)CNC(=O)CCC[C@H](NC(C)=O)C(=O)N[C@@H](Cc2ccc(O)cc2)C(=O)N[C@@H](CO)C(=O)N(C)[C@@H](CCc2ccccc2)C(=O)N1C [Example C31]	< 5.00	5.31	< 5.22			
CC(=O)NCCCC[C@H]1C(=O)N[C@@H](Cc2c[nH]c3ccc(O)cc23)C(=O)N[C@@H](Cc2c[nH]c3ccccc23)C(=O)N[C@@H]([C@H](C)O)C(=O)N(C)[C@H](C(=O)N(C)[C@@H](Cc2ccc(F)cc2)C(=O)N[C@@H](CCCCNC(=O)CN2CCN(CC(=O)O)CCN(CC(=O)O)CCN(CC(=O)O)CC2)C(N)=O)CNC(=O)CCC[C@H](NC(C)=O)C(=O)N[C@@H](Cc2ccc(O)cc2)C(=O)N[C@@H](CO)C(=O)N(C)[C@@H](CCc2ccccc2)C(=O)N1C [Example C6]		9.30	9.52		9.00	9.52
CC(=O)NCCCC[C@H]1C(=O)N[C@@H](Cc2c[nH]c3ccc(O)cc23)C(=O)N[C@@H](Cc2c[nH]c3ccccc23)C(=O)N[C@@H](C2CC2)C(=O)N(C)[C@H](C(=O)N(C)[C@@H](Cc2ccc(F)cc2)C(=O)N[C@@H](CCCNC(=O)CN2CCN(CC(=O)O)CCN(CC(=O)O)CCN(CC(=O)O)CC2)C(N)=O)CNC(=O)CCC[C@H](NC(C)=O)C(=O)N[C@@H](Cc2ccc(O)cc2)C(=O)N[C@@H](CO)C(=O)N(C)[C@@H](CCc2ccccc2)C(=O)N1C [Example C9] (Ac-[Aad]YS[NMehPhe][NMeK](Ac)[Trp(5-OH)]W[Gly(cPr)][NMeDap][NMePhe(4-F)][Orn](DOTA)-NH2; lactam 1-9)	9.70	> 10.00	> 10.00			
CC(=O)NCCCC[C@H]1C(=O)N[C@@H](Cc2c[nH]c3ccc(O)cc23)C(=O)N[C@@H](Cc2c[nH]c3ccccc23)C(=O)N[C@@H](C2CC2)C(=O)N(C)[C@H](C(=O)N(C)[C@@H](Cc2ccc(F)cc2)C(=O)N[C@@H](CCCCNC(=O)CC[C@H](C(=O)O)N2CCN(CC(=O)O)CCN(CC(=O)O)CCN(CC(=O)O)CC2)C(N)=O)CNC(=O)CCC[C@H](NC(C)=O)C(=O)N[C@@H](Cc2ccc(O)cc2)C(=O)N[C@@H](CO)C(=O)N(C)[C@@H](CCc2ccccc2)C(=O)N1C [Example B12]	> 10.00		> 10.00	> 10.00		
CC(=O)NCCCC[C@H]1C(=O)N[C@@H](Cc2c[nH]c3ccc(O)cc23)C(=O)N[C@@H](Cc2c[nH]c3ccccc23)C(=O)N[C@@H](C2CC2)C(=O)N(C)[C@H](C(=O)N(C)[C@@H](Cc2ccc(F)cc2)C(=O)N[C@@H](CCCCNC(=O)CCC(C(=O)O)N2CCN(CC(=O)O)CCN(CC(=O)O)CC2)C(N)=O)CNC(=O)CCC[C@H](NC(C)=O)C(=O)N[C@@H](Cc2ccc(O)cc2)C(=O)N[C@@H](CO)C(=O)N(C)[C@@H](CCc2ccccc2)C(=O)N1C (single isomer, unassigned) [Example C34]	> 10.00	> 10.00	> 10.00			
COCCOCCOCCOCCOCCOCCOCCOCCOCCOCCOCCOCCC(=O)N[C@H]1CCCC(=O)NC[C@@H](C(=O)N(C)[C@@H](Cc2ccc(F)cc2)C(=O)N[C@@H](CCCCNC(=O)CN2CCN(CC(=O)O)CCN(CC(=O)O)CC2)C(N)=O)N(C)C(=O)[C@H](C2CC2)NC(=O)[C@H](Cc2c[nH]c3ccccc23)NC(=O)[C@H](Cc2c[nH]c3ccc(O)cc23)NC(=O)[C@H](CCCCNC(C)=O)N(C)C(=O)[C@H](CCc2ccccc2)N(C)C(=O)[C@H](CO)NC(=O)[C@H](Cc2ccc(O)cc2)NC1=O [Example B11]	9.70		> 10.00	> 10.00		
